The data set deals with follicles (microcomedones). Set-up: species or system human. The settings on record: in vivo. The method, then:
A study is conducted to determine the comedogenic potential of test materials in the form of day cream and eye cream with formulations disclosed above by assessing whether the test materials elicited microcomedones, after four weeks of repeated application under occlusive patch conditions, relative to a negative control (undosed patch). Acetylated Lanolin Alcohol served as a positive control material in order to validate the study. The tests are conducted during a 4 week study period. A total of 15 subjects, ranging in age from 22 to 45 years, are selected for the study. All 15 participants completed the study.

Regarding Acetylated Lanolin Alcohol, the “average ratio of microcomedones per follicle” value was determined as 6% and the “ratio of microcomedones to follicles compared with negative control (statistics)” value is “significantly greater ratio than the negative control”.

Values taken from patent US8992996B2, “Cosmetic” (Restorsea, LLC, priority 2012, dated 2015).
